Experimental data from paper PMC10987797, “Functional characterization of Capsicum chinense vanillin aminotransferase: Detection of vanillylamine-forming activity from vanillin” (Biochemistry and Biophysics Reports, 2024).

Columns and labels:
Type in all cases: biochemical
[1] = molecular target: T1, VAMT (vanillin aminotransferase; rVAMT) (Capsicum chinense, UniProt O82521); test: HPLC assay of vanillylamine formation, Michaelis-Menten fit; conditions: 0.1 mM PLP, 50 mM potassium phosphate pH 8.0, standard assay 30 °C, ping-pong
T1 construct: full length, N-terminal His6-tag (pET28a) cut off by thrombin; recombinant from E. coli Rosetta2 (DE3)
T1 sequence (O82521 whole entry): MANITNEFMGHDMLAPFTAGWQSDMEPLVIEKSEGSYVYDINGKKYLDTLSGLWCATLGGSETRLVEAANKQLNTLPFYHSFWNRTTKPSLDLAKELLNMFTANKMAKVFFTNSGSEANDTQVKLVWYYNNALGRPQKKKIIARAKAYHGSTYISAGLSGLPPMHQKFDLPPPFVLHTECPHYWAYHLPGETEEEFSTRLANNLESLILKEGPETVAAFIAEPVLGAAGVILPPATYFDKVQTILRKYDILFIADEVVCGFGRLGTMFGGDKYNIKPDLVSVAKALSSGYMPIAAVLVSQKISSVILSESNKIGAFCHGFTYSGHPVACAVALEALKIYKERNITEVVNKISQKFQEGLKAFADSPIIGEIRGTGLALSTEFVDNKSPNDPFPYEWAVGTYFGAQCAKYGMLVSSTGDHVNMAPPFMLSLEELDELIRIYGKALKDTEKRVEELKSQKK
Description: HPLC assay of vanillylamine formation, Michaelis-Menten fit on VAMT (vanillin aminotransferase; rVAMT)

[2] = molecular target: T1, VAMT (vanillin aminotransferase; rVAMT); test: HPLC assay of vanillin formation, Michaelis-Menten fit; conditions: 0.1 mM PLP, 50 mM potassium phosphate pH 8.0, standard assay 30 °C
Description: HPLC assay of vanillin formation, Michaelis-Menten fit on VAMT (vanillin aminotransferase; rVAMT)

[3] = molecular target: T1, VAMT (vanillin aminotransferase; rVAMT); test: HPLC assay of vanillin glucoside formation, Michaelis-Menten fit; conditions: 100 mM pyruvate as amino acceptor, 0.1 mM PLP, 50 mM potassium phosphate pH 8.0; standard assay 30 °C
Description: HPLC assay of vanillin glucoside formation, Michaelis-Menten fit on VAMT (vanillin aminotransferase; rVAMT)

[4] = molecular target: T1, VAMT (vanillin aminotransferase; rVAMT); test: HPLC assay of vanillylamine glucoside formation, Michaelis-Menten fit; conditions: 100 mM GABA as amino donor, 0.1 mM PLP, 50 mM potassium phosphate pH 8.0; standard assay 30 °C
Description: HPLC assay of vanillylamine glucoside formation, Michaelis-Menten fit on VAMT (vanillin aminotransferase; rVAMT)

In the case of NCCCC(=O)O [GABA], the Km ([1]; 5 mM vanillin as amino acceptor) is reported as 36 ± 2.1 mM.
In the case of CC(=O)C(=O)O [Na pyruvate], the Km ([2]; 5 mM vanillylamine as amino donor) is reported as 5.4 ± 0.34 mM.
Work on COc1cc(CN)ccc1O[C@@H]1O[C@H](CO)[C@@H](O)[C@H](O)[C@H]1O [VAG] yielded a Km [3] of 15 ± 4.8 mM.
With COc1cc(CN)ccc1O [VA] the Km ([2]; 100 mM pyruvate as amino acceptor) was 0.25 ± 0.037 mM.
COc1cc(C=O)ccc1O[C@@H]1O[C@H](CO)[C@@H](O)[C@H](O)[C@H]1O [VG] was tested, and the Km [4] was 3.3 ± 0.56 mM.
In the case of COc1cc(C=O)ccc1O [V], the Km ([1]; 100 mM GABA as amino donor) is reported as 0.48 ± 0.049 mM.
